Laboratory results as given in PubChem BioAssay (NCI).
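Grown in 96-well plates, cells were treated for 48 hours with each compound at five concentrations. Insufficient inhibition: endpoint recorded as highest concentration tested. Here, GI50 denotes the concentration required for 50% inhibition of growth. TGI: total growth inhibition.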

How the values were obtained:
Assay in all cases: NCI tumour cell line growth inhibition, 48 h
[1] = tested on: OVCAR-3 ovarian
[2] = tested on: A549 NSCLC
[3] = tested on: COLO 205 colon
[4] = tested on: RXF 393 renal
[5] = tested on: SF-268 CNS
[6] = tested on: HCT-116 colon
[7] = tested on: MDA-MB-231 breast
[8] = tested on: NCI/ADR-RES ovarian
[9] = tested on: MDA-MB-435
[10] = tested on: TK-10 renal

Row | Compound | TGI [1] | TGI [2] | TGI [3] | TGI [4] | TGI [5] | TGI [6] | TGI [7] | TGI [8] | TGI [9] | TGI [10] | GI50 [1] | GI50 [10] | GI50 [2] | GI50 [3] | GI50 [4] | GI50 [5] | GI50 [6] | GI50 [7] | GI50 [8] | GI50 [9]
1 | Cc1cc(-c2nc3ccccc3s2)ccc1NC(=O)[C@H](C)N | 24.7 µM | 27.3 µM | 26.7 µM | 25.4 µM | 52.5 µM | 23.4 µM | 32.6 µM | 38.5 µM | 19.9 µM |  |  |  |  |  |  |  |  |  |  | 
2 | O=c1[nH]c(=O)n(Cc2ccccc2CO)cc1Sc1ccccc1 | 42.2 µM | 43.2 µM | > 100 µM | 80.9 µM | 70.6 µM | 64.7 µM | 33.8 µM | 81 µM | 45.2 µM | > 100 µM |  |  |  |  |  |  |  |  |  | 
3 | CCCCCCCCCCCCCCCCCCNc1ccn(C2OC(COP(=O)(O)OCC3OC(n4cc(C)c(=O)[nH]c4=O)CC3N=[N+]=[N-])C(O)C2O)c(=O)n1 (configuration not stated) | > 100 µM | > 100 µM | 30.7 µM |  | 43.6 µM | > 100 µM | 56.7 µM | 50 µM | 63.2 µM | 69.5 µM |  |  |  |  |  |  |  |  |  | 
4 | O=c1cc(N2CCCC2)[nH]c(=O)n1-c1cccc(C(F)(F)F)c1 | > 100 µM |  | > 100 µM | > 100 µM | > 100 µM | > 100 µM | > 100 µM | > 100 µM | > 100 µM | > 100 µM |  |  |  |  |  |  |  |  |  | 
5 | CCCCc1ccc(Nc2ncc3[nH]cnc3n2)cc1 | 28.9 µM | 53.2 µM | 36.7 µM | 49.7 µM | 50.1 µM | 34.5 µM | 30.3 µM | 46 µM | > 100 µM | 30.9 µM |  |  |  |  |  |  |  |  |  | 
6 | CN(C)CCNC(=O)c1cccc2nc3c(nc12)-c1ccccc1C3=O | 43.2 µM | 37.7 µM | 58.5 µM | 34.4 µM | 32.2 µM | 88.3 µM | 23.8 µM | 39.3 µM | 32.1 µM | 56.6 µM |  |  |  |  |  |  |  |  |  | 
7 | O=C(c1ccccc1)c1ccc2nc(-c3c(Cl)c(Cl)c(Cl)c(Cl)c3C(=O)N/N=C/c3ccccc3)[nH]c2c1 | 54.3 µM | > 100 µM | 39.3 µM | 73.2 µM | > 100 µM | > 100 µM | 79.2 µM | 80 µM | 90.8 µM | > 100 µM |  |  |  |  |  |  |  |  |  | 
8 | C#CC(F)(F)[C@]1(O)CC[C@H]2[C@@H]3CCC4=CC(=O)CCC4=C3[C@@H](c3ccc(C(C)=O)cc3)C[C@@]21C | 42.8 µM | > 100 µM | 38.6 µM | 39.8 µM | > 100 µM | 42.6 µM | > 87.5 µM | 59 µM | 52 µM | 71.4 µM | 0.289 µM | 24.9 µM | 25.9 µM | 13.1 µM | 13.4 µM | 0.423 µM | 14.1 µM | 15.7 µM | 13.8 µM | 13.9 µM
